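Each compound was tested at five concentrations against cells in 96-well plates for 48 hours. Here, GI50 denotes the concentration required for 50% inhibition of growth.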 Activity calls are given as the source filed them. No stated cut-off is given here; in the data, active = GI50 up to about 1.1 µM and inactive = higher.
What was measured:
Assay in all cases: NCI anticancer screen, dose series, 48 h
HT-29 = test system: HT-29
SK-MEL-2 = test system: SK-MEL-2
EKVX = test system: EKVX
NCI-H522 = test system: NCI-H522
LOX IMVI = test system: LOX IMVI
A498 = test system: A498
MDA-MB-231 = test system: MDA-MB-231
COLO 205 = test system: COLO 205
SK-MEL-28 = test system: SK-MEL-28
SF-295 = test system: SF-295
SK-MEL-5 = test system: SK-MEL-5
KM12 = test system: KM12
RXF 393 = test system: RXF 393
NCI-H23 = test system: NCI-H23
MDA-MB-435 = test system: MDA-MB-435
NCI-H460 = test system: NCI-H460
RPMI-8226 = test system: RPMI-8226
HCT-116 = test system: HCT-116
MDA-N = test system: MDA-N
U-251 = test system: U-251
IGROV-1 = test system: IGROV-1
SW-620 = test system: SW-620
MCF7 = test system: MCF7
UACC-257 = test system: UACC-257
OVCAR-4 = test system: OVCAR-4
HL-60 = test system: HL-60
SF-268 = test system: SF-268
CAKI-1 = test system: CAKI-1
SK-OV-3 = test system: SK-OV-3
Malme-3M = test system: Malme-3M
NCI/ADR-RES = test system: NCI/ADR-RES
SN12C = test system: SN12C
NCI-H226 = test system: NCI-H226
UO-31 = test system: UO-31
CCRF-CEM = test system: CCRF-CEM
UACC-62 = test system: UACC-62
DU-145 = test system: DU-145
MOLT-4 = test system: MOLT-4
SR = test system: SR
HCC 2998 = test system: HCC 2998
BT-549 = test system: BT-549
A549 = test system: A549
OVCAR-5 = test system: OVCAR-5
HOP-62 = test system: HOP-62
Hs-578T = test system: Hs-578T
HOP-92 = test system: HOP-92
OVCAR-3 = test system: OVCAR-3
PC-3 = test system: PC-3
OVCAR-8 = test system: OVCAR-8
SNB-75 = test system: SNB-75
HCT-15 = test system: HCT-15
K562 = test system: K562
786-0 = test system: 786-0
SNB-19 = test system: SNB-19
M14 = test system: M14
T47D = test system: T47D

Nc1nc(NCC2(CO)CC(CCc3ccccc3)C2)cc(=O)[nH]1 (stereo unspecified) was tested, and the GI50 (HT-29) was > 100 µM (inactive), the GI50 (SK-MEL-2) was > 100 µM (inactive) and the GI50 (EKVX) was > 100 µM (inactive). The GI50 (NCI-H522) was > 100 µM (inactive), the GI50 (LOX IMVI) was > 100 µM (inactive) and the GI50 (A498) was > 100 µM (inactive). The GI50 (MDA-MB-231) was > 100 µM (inactive), the GI50 (COLO 205) was > 100 µM (inactive) and the GI50 (SK-MEL-28) was > 100 µM (inactive). For the same molecule, the GI50 (SF-295) was > 100 µM (inactive), the GI50 (SK-MEL-5) was > 100 µM (inactive) and the GI50 (KM12) was > 100 µM (inactive). The GI50 (RXF 393) was > 100 µM (inactive), the GI50 (NCI-H23) was > 100 µM (inactive) and the GI50 (MDA-MB-435) was > 100 µM (inactive). For the same molecule, the GI50 (NCI-H460) was > 100 µM (inactive), the GI50 (RPMI-8226) was 46.7 µM (inactive) and the GI50 (HCT-116) was > 100 µM (inactive). The GI50 (MDA-N) was > 100 µM (inactive), the GI50 (U-251) was > 100 µM (inactive) and the GI50 (IGROV-1) was > 100 µM (inactive). For the same molecule, the GI50 (SW-620) was > 100 µM (inactive), the GI50 (MCF7) was > 100 µM (inactive) and the GI50 (UACC-257) was > 100 µM (inactive). For the same molecule, the GI50 (OVCAR-4) was > 100 µM (inactive), the GI50 (HL-60) was 82.8 µM (inactive) and the GI50 (SF-268) was > 100 µM (inactive). The GI50 (CAKI-1) was > 100 µM (inactive), the GI50 (SK-OV-3) was 22.2 µM (inactive) and the GI50 (Malme-3M) was > 100 µM (inactive). For the same molecule, the GI50 (NCI/ADR-RES) was > 100 µM (inactive), the GI50 (SN12C) was > 100 µM (inactive) and the GI50 (NCI-H226) was > 100 µM (inactive). The GI50 (UO-31) was 18.2 µM (inactive), the GI50 (CCRF-CEM) was 78.2 µM (inactive) and the GI50 (UACC-62) was > 100 µM (inactive). The GI50 (DU-145) was > 100 µM (inactive), the GI50 (MOLT-4) was 55.2 µM (inactive) and the GI50 (SR) was > 100 µM (inactive). The GI50 (HCC 2998) was > 100 µM (inactive), the GI50 (BT-549) was > 100 µM (inactive) and the GI50 (A549) was > 100 µM (inactive). For the same molecule, the GI50 (OVCAR-5) was > 100 µM (inactive), the GI50 (HOP-62) was > 100 µM (inactive) and the GI50 (Hs-578T) was > 100 µM (inactive). The GI50 (HOP-92) was > 100 µM (inactive), the GI50 (OVCAR-3) was > 100 µM (inactive) and the GI50 (PC-3) was > 100 µM (inactive). For the same molecule, the GI50 (OVCAR-8) was > 100 µM (inactive), the GI50 (SNB-75) was > 100 µM (inactive) and the GI50 (HCT-15) was > 100 µM. The GI50 (K562) was 26.2 µM (inactive), the GI50 (786-0) was > 100 µM (inactive) and the GI50 (SNB-19) was > 100 µM (inactive). The GI50 (M14) was > 100 µM (inactive) and the GI50 (T47D) was 27.8 µM (inactive).
